Test results taken from patent publication US9663512B2, “Bicyclic heterocycle compounds and their uses in therapy” (ASTEX THERAPEUTICS LIMITED, priority 2012, dated 2017).
Where a name gives a salt, the structure may show the parent alone. Read-outs that look alike come from different tables or passages of the source.

Tests used:
[1] = tested on: EVSA-T (human breast carcinoma); assay: Anti-proliferative activity, Alamar Blue assay, EVSA-T; format: cell-based; conditions: EVSA-T cell line, read-out: EVSA-T prolif (EC50)
[2] = biological target: T1, BIR3 domain of human XIAP (Homo sapiens, UniProt P98170); assay: XIAP in vitro competitive displacement binding assay (fluorescence polarization); conditions: for IC50: XIAP BIR3 fluorescence polarization displacement, average (e.g. geometric mean), read-out: Xiap IC50 or PI (IC50); for inhibition at […]: at 0.12 μM; for inhibition at […] / inhibition at 0.04 µM: read-out: Xiap IC50 or PI (percent inhibition)
T1 construct: BIR3 domain of human XIAP (residues 252-350) fused to a His-tag; His-tag (cleaved yes); made in house; host or cells: Escherichia coli
T1 sequence (P98170 252-350): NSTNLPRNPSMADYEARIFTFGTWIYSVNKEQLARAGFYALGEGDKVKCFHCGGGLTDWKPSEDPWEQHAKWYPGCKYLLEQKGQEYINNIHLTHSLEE

[3] = biological target: T2, BIR3 domain of human cIAP-1 (Homo sapiens, UniProt Q13490); assay: cIAP-1 in vitro competitive displacement binding assay (fluorescence polarization); conditions: at 0.012 μM; read-out: cIAP1 IC50 or PI (percent inhibition)
T2 construct: human cIAP-1 (residues 267-363) fused to a GST-tag; GST-tag (cleaved yes); made in house; host or cells: Escherichia coli
T2 sequence (Q13490 267-363): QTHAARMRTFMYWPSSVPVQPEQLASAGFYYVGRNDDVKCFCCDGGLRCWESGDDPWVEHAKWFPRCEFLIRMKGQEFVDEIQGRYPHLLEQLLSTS

Structure (SMILES)	EC50 ([1]; 72 hours) [nM]	inhibition at […] [3] [%]	inhibition at 0.04 µM [2] [%]	further results
Cc1cn(C[C@H]2CN[C@H](C)CN2CC(=O)N2CC(C)(C)c3ncc(Cc4ccc(F)cc4)cc32)cn1 (single isomer, unassigned) [Example 13, dihydrochloride]	9.9			
Cc1cncn1C[C@H]1CN[C@H](C)CN1CC(=O)N1CC(C)(C)c2ncc(Cc3ccc(F)cc3)cc21 (single isomer, unassigned) [Example 14, dihydrochloride]	5.9			
Cc1cnn(C[C@H]2CN[C@H](C)CN2CC(=O)N2CC(C)(C)c3ncc(Cc4ccc(F)cc4)cc32)c1C (single isomer, unassigned) [Example 20, dihydrochloride]	< 1000			EC50 ([1]; EVSA-T, 72 h): 2.1 nM
Cc1cc(C)n(C[C@H]2CN[C@H](C)CN2CC(=O)N2CC(C)(C)c3ncc(Cc4ccc(F)cc4)cc32)n1 [Example 1, 2-[(2R,5R)-2-[(3,5-Dimethyl-1H-pyrazol-1-yl)methyl]-5-methylpiperazin-1-yl]-1-{6-[(4-fluorophenyl)methyl]-3,3-dimethyl-1H,2H,3H-pyrrolo[3,2-b]pyridin-1-yl}ethan-1-one, dihydrochloride]				IC50 [2]: 91 nM
Cc1nccn1C[C@H]1CN[C@H](C)CN1CC(=O)N1CC(C)(C)c2ncc(Cc3ccc(F)cc3)cc21 [Example 2, 1-{6-[(4-Fluorophenyl)methyl]-3,3-dimethyl-1H,2H,3H-pyrrolo[3,2-b]pyridin-1-yl}-2-[(2R,5R)-5-methyl-2-[(2-methyl-1H-imidazol-1-yl)methyl]piperazin-1-yl]ethan-1-one, dihydrochloride]		100		inhibition at […] [2]: 65%
Cc1ncn(C[C@H]2CN[C@H](C)CN2CC(=O)N2CC(C)(C)c3ncc(Cc4ccc(F)cc4)cc32)c1C [Example 3, 2-[(2R,5R)-2-[(4,5-Dimethyl-1H-imidazol-1-yl)methyl]-5-methylpiperazin-1-yl]-1-{6-[(4-fluorophenyl)methyl]-3,3-dimethyl-1H,2H,3H-pyrrolo[3,2-b]pyridin-1-yl}ethan-1-one, dihydrochloride]		99	34	
CCc1nccn1C[C@H]1CN[C@H](C)CN1CC(=O)N1CC(C)(C)c2ncc(Cc3ccc(F)cc3)cc21 [Example 4, 2-[(2R,5R)-2-[(2-Ethyl-1H-imidazol-1-yl)methyl]-5-methylpiperazin-1-yl]-1-{6-[(4-fluorophenyl)methyl]-3,3-dimethyl-1H,2H,3H-pyrrolo[3,2-b]pyridin-1-yl}ethan-1-one, dihydrochloride]		96	35	
C[C@@H]1CN(CC(=O)N2CC(C)(C)c3ncc(Cc4ccc(F)cc4)cc32)[C@@H](Cn2ccnc2C(F)(F)F)CN1 [Example 5, 1-{6-[(4-Fluorophenyl)methyl]-3,3-dimethyl-1H,2H,3H-pyrrolo[3,2-b]pyridin-1-yl}-2-[(2R,5R)-5-methyl-2-{[2-(trifluoromethyl)-1H-imidazol-1-yl]methyl}piperazin-1-yl]ethan-1-one, dihydrochloride]		96		IC50 [2]: 110 nM
C[C@@H]1CN(CC(=O)N2CC(C)(C)c3ncc(Cc4ccc(F)cc4)cc32)[C@@H](Cn2ccnc2)CN1 [Example 6, 1-{6-[(4-Fluorophenyl)methyl]-3,3-dimethyl-1H,2H,3H-pyrrolo[3,2-b]pyridin-1-yl}-2-[(2R,5R)-2-(1H-imidazol-1-ylmethyl)-5-methylpiperazin-1-yl]ethan-1-one, dihydrochloride]				inhibition at […] [2]: 54%
Cc1cn(C[C@H]2CN[C@H](C)CN2CC(=O)N2CC(C)(C)c3ncc(Cc4ccc(F)cc4)cc32)c(C)n1 [Example 7, 2-[(2R,5R)-2-[(2,4-Dimethyl-1H-imidazol-1-yl)methyl]-5-methylpiperazin-1-yl]-1-{6-[(4-fluorophenyl)methyl]-3,3-dimethyl-1H,2H,3H-pyrrolo[3,2-b]pyridin-1-yl}ethan-1-one, dihydrochloride]	2.9			
C[C@@H]1CN(CC(=O)N2CC(C)(C)c3ncc(Cc4ccc(F)cc4)cc32)[C@@H](Cn2ccnc2Cl)CN1 [Example 8, 2-[(2R,5R)-2-[(2-Chloro-1H-imidazol-1-yl)methyl]-5-methylpiperazin-1-yl]-1-{6-[(4-fluorophenyl)methyl]-3,3-dimethyl-1H,2H,3H-pyrrolo[3,2-b]pyridin-1-yl}ethan-1-one, dihydrochloride]		100	36	
Cc1ccc(=O)n(C[C@H]2CN[C@H](C)CN2CC(=O)N2CC(C)(C)c3ncc(Cc4ccc(F)cc4)cc32)c1 [Example 9, 1-{[(2R,5R)-1-(2-{6-[(4-Fluorophenyl)methyl]-3,3-dimethyl-1H,2H,3H-pyrrolo[3,2-b]pyridin-1-yl}-2-oxoethyl)-5-methylpiperazin-2-yl]methyl}-5-methyl-1,2-dihydropyridin-2-one, dihydrochloride]		92	35	
C[C@@H]1CN(CC(=O)N2CC(C)(C)c3ncc(Cc4ccc(F)cc4)cc32)[C@@H](Cn2ccnc2C#N)CN1 [Example 10, 1-{[(2R,5R)-1-(2-{6-[(4-Fluorophenyl)methyl]-3,3-dimethyl-1H,2H,3H-pyrrolo[3,2-b]pyridin-1-yl}-2-oxoethyl)-5-methylpiperazin-2-yl]methyl}-1H-imidazole-2-carbonitrile, L-lactate]				EC50 ([1]; EVSA-T, 72 h): 6.4 nM
Cc1nc(Cl)cn1C[C@H]1CN[C@H](C)CN1CC(=O)N1CC(C)(C)c2ncc(Cc3ccc(F)cc3)cc21 [Example 11, 2-[(2R,5R)-2-[(4-Chloro-2-methyl-1H-imidazol-1-yl)methyl]-5-methylpiperazin-1-yl]-1-{6-[(4-fluorophenyl)methyl]-3,3-dimethyl-1H,2H,3H-pyrrolo[3,2-b]pyridin-1-yl}ethan-1-one, dihydrochloride]				EC50 ([1]; EVSA-T, 72 h): 1.8 nM
Cc1cnnn1C[C@H]1CN[C@H](C)CN1CC(=O)N1CC(C)(C)c2ncc(Cc3ccc(F)cc3)cc21 [Example 15, 1-{6-[(4-Fluorophenyl)methyl]-3,3-dimethyl-1H,2H,3H-pyrrolo[3,2-b]pyridin-1-yl}-2-[(2R,5R)-5-methyl-2-[(5-methyl-1H-1,2,3-triazol-1-yl)methyl]piperazin-1-yl]ethan-1-one, dihydrochloride]	9.4			IC50 [2]: 220 nM
Cc1cn(C[C@H]2CN[C@H](C)CN2CC(=O)N2CC(C)(C)c3ncc(Cc4ccc(F)cc4)cc32)nn1 [Example 16, 1-{6-[(4-Fluorophenyl)methyl]-3,3-dimethyl-1H,2H,3H-pyrrolo[3,2-b]pyridin-1-yl}-2-[(2R,5R)-5-methyl-2-[(4-methyl-1H-1,2,3-triazol-1-yl)methyl]piperazin-1-yl]ethan-1-one, dihydrochloride]	8.5			
Cc1ncnn1C[C@H]1CN[C@H](C)CN1CC(=O)N1CC(C)(C)c2ncc(Cc3ccc(F)cc3)cc21 [Example 21, 1-{6-[(4-Fluorophenyl)methyl]-3,3-dimethyl-1H,2H,3H-pyrrolo[3,2-b]pyridin-1-yl}-2-[(2R,5R)-5-methyl-2-[(5-methyl-1H-1,2,4-triazol-1-yl)methyl]piperazin-1-yl]ethan-1-one]		95		inhibition at […] [2]: 61%
Cc1cc(C[C@H]2CN[C@H](C)CN2CC(=O)N2CC(C)(C)c3ncc(Cc4ccc(F)cc4F)cc32)n(C)n1 [Example 22, 1-{6-[(2,4-Difluorophenyl)methyl]-3,3-dimethyl-1H,2H,3H-pyrrolo[3,2-b]pyridin-1-yl}-2-[(2S,5R)-2-[(1,3-dimethyl-1H-pyrazol-5-yl)methyl]-5-methylpiperazin-1-yl]ethan-1-one, dihydrochloride]			47	
Cc1cn(C[C@H]2CN[C@H](C)CN2CC(=O)N2CC(C)(C)c3ncc(Cc4ccc(F)cc4)cc32)ccc1=O [Example 38, 1-{[(2R,5R)-1-(2-{6-[(4-Fluorophenyl)methyl]-3,3-dimethyl-1H,2H,3H-pyrrolo[3,2-b]pyridin-1-yl}-2-oxoethyl)-5-methylpiperazin-2-yl]methyl}-3-methyl-1,4-dihydropyridin-4-one, dihydrochloride]		94	48	
